Test results as given in patent US20150152080A1, “BENZOTHIOPHENE SULFONAMIDES DERIVATIVES AS CHEMOKINE RECEPTOR MODULATORS” (Allergan, Inc., priority 2013, published 2015).

Molecular target: T1, CCR2 (Homo sapiens, UniProt P41597)
T1 construct: expressed in transfected cells; geneticin and hygromycin selection
Assay: Calcium activity assay on FLIPR Tetra in HEK-Gqi5 cells stably expressing CCR2
Format: cell-based
Conditions: for Emax: read-out: CCR2 ANTAGONISM Rel. Eff. (%)
Protocol: HEK-Gqi5 cells stably expressing CCR2 were cultured in DMEM high glucose, 10% FBS, 1% PSA, 400 μg/ml geneticin and 50 μg/ml hygromycin. Appropriate positive control chemokines (MCP-1, MIP1A or RANTES) was used as the positive control agonist for screening compound-induced calcium activity assayed on the FLIPR^Tetra. The drug plates were prepared in 384-well microplates using the EP3 and the MultiPROBE robotic liquid handling systems. Compounds were synthesized and tested for CCR2 activity.

T1 sequence (P41597 whole entry, species assumed): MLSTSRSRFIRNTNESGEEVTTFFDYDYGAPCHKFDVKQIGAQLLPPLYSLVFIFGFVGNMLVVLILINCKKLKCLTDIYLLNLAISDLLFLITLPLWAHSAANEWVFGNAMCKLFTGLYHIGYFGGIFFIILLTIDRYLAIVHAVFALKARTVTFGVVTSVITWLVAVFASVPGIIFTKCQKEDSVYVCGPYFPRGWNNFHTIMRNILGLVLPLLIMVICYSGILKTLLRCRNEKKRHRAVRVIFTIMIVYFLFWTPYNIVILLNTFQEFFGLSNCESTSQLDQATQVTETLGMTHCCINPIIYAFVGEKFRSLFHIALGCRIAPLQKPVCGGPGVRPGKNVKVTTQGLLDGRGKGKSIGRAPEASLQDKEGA

| SMILES | IC50 | Emax |
| --- | --- | --- |
| O=S(=O)(Nc1cccnc1SCc1ccccc1)c1cc2ccccc2s1 [Compound 10, N-[2-(Benzylsulfanyl)pyridin-3-yl]-1-benzothiophene-2-sulfonamide] | 2250 nM | 44% |
| Nc1cccc(CS(=O)(=O)c2ccc(Cl)cc2NS(=O)(=O)c2cc3ccccc3s2)c1 [Compound 7, N-{2-[(3-Aminobenzyl)sulfonyl]-5-chlorophenyl}-1-benzothiophene-2-sulfonamide] | 77 nM | 98% |
| O=S(=O)(Cc1ccccc1)c1ncccc1NS(=O)(=O)c1cc2ccccc2s1 [Compound 11, N-[2-(Benzylsulfonyl)pyridin-3-yl]-1-benzothiophene-2-sulfonamide] | 85 nM | 93% |
| O=S(=O)(Nc1cccnc1[S+]([O-])Cc1ccccc1)c1cc2ccccc2s1 (stereo not shown) [Compound 12, N-[2-(Benzylsulfinyl)pyridin-3-yl]-1-benzothiophene-2-sulfonamide] | 122 nM | 72% |

Now from value to compound:

| IC50 | Emax | SMILES |
| --- | --- | --- |
| 198 nM | 86% | COC(=O)c1ccccc1CSc1ccc(Cl)cc1NS(=O)(=O)c1cc2ccccc2s1 [Compound 1] |
| 114 nM | 88% | Cc1ccc(NS(=O)(=O)c2cc3ccccc3s2)c(SCc2ccccc2C(=O)O)c1 [Compound 9, 2-[({2-[(1-Benzothiophen-2-ylsulfonyl)amino]-5-methylphenyl}sulfanyl)methyl]benzoic acid] |
| < 10 nM | 96% | O=C(O)c1ccccc1CSc1ccc(F)cc1NS(=O)(=O)c1cc2ccccc2s1 [Compound 14, 2-[({2-[(1-benzothiophen-2-ylsulfonyl)amino]-4-fluorophenyl}sulfanyl)methyl]benzoic acid] |
| 268 nM | 68% | COC(=O)c1ccccc1CSc1ccc(F)cc1NS(=O)(=O)c1cc2ccccc2s1 [Compound 13, methyl 2-[({2-[(1-benzothiophen-2-ylsulfonyl)amino]-4-fluorophenyl}sulfanyl)methyl]benzoate] |
| 4 nM | 100% | O=C(O)c1ccccc1CSc1ccc(Cl)cc1NS(=O)(=O)c1cc2ccccc2s1 [Compound 2, 2-[({2-[(1-Benzothiophen-2-ylsulfonyl)amino]-4-chlorophenyl}sulfanyl)methyl]benzoic acid] |
| – | 99% | Cc1ccc(SCc2ccccc2C(=O)O)c(NS(=O)(=O)c2cc3ccccc3s2)c1 [Compound 4, 2-[({2-[(1-Benzothiophen-2-ylsulfonyl)amino]-4-methylphenyl}sulfanyl)methyl]benzoic acid] |
